{"source": "patent US12383534B2", "about": "“Methods for treating cancer” (REGENTS OF THE UNIVERSITY OF MINNESOTA, priority 2021, dated 2025)", "key": {"[1]": {"test_system": "Panc1, MiaPaca2, CFPac1 pancreatic cancer cells", "assay": "Cell viability (ATP) assay in pancreatic cancer cells", "type": "cell-based", "details": "serial dilutions, 48 hours", "experimental": "(§1) Cell lines were plated in a 96 well dish (1×10^5 cells/well), and the following day were treated with iP300w or its stereoisomers. ATP assays were performed using CellTiter-Glo® Luminescent Cell Viability Assay (Promega) according to the manufacturer's instructions. Luminescence was analyzed on POLARstar Optima Microplate Reader (BMG Labtech, Offenburg, Germany).\nPancreatic and colorectal cancer cell lines were treated with iP300w to further distinguish its specificity to CDS from general cytotoxicity. p300/CBP have been correlated with the invasive and migratory properties of pancreatic and colorectal cancers (Iyer, N. G. et al., Proceedings of the National Academy of Sciences of the United States of America 101, 7386-7391 (2004); and Paladino, D. et al, Oncotarget 7, 7253-7267 (2016)). […] This further supports the specific efficacy of iP300w against cancers bearing p300-dependent oncogenic fusion transcription factors (such as CIC-DUX4), vis-à-vis cancers that may show some degree of growth inhibition by iP300w due simply to p300-dependent proliferative pathways."}, "[2]": {"test_system": "global H3K18 and H3K27 acetylation", "assay": "Western blot for H3 acetylation markers in Kitra-SRS cells", "type": "cell-based, human", "details": "18 hours", "experimental": "(§2) For western blot analyses, cells were lysed with RIPA buffer supplemented with protease inhibitor cocktail (Complete, Roche), and proteins were separated on 10% SDS-PAGE gels, then transferred to PVDF membranes. Antibodies were diluted in 5% skim milk in TBST and incubated overnight at 4° C. or 1 hour at RT. An appropriate secondary HRP conjugated antibody was incubated for 1 hour at RT. Membranes were then washed with TBST, and signal was visualized using Pierce ECL western blotting substrate (Thermo Scientific). For immunofluorescence, cells cultured in 96 well plates were fixed in 4% PFA for 10 min., washed twice with PBS, permeabilized with 0.3% Triton X for 30 min, and blocked with 3% BSA for 1 hour at R/T. Primary antibodies were diluted in 3% BSA and incubated o/n at 4° C. An appropriate conjugated secondary antibody was applied for 60 min at RT. Nuclei were visualized using DAPI (1:5000, Sigma). […]"}, "Kitra-SRS cells": {"test_system": "Kitra-SRS cells", "assay": "Immunofluorescence for Ki-67 in Kitra-SRS cells", "type": "cell-based, human", "details": "24 hours, 0.3 μM", "experimental": "as §2"}, "[3]": {"test_system": "NCC-CDS-X1 cells (CIC-DUX4 sarcoma cell line)", "assay": "Cell viability (ATP) assay in NCC-CDS-X1 cells", "type": "cell-based, human", "experimental": "Basal media were purchased from HyClone, fetal bovine serum (FBS) was from PeakSerum (Ps-FB3, lot 293Q16), and Glutamax (Glu) and Penicillin/Streptomycin (P/S) were from GIBCO. NCC-CDS-X1 (CIC-DUX4 sarcoma cell line, a generous gift from Tadashi Kondo) cell line was cultured in RPMI with 10% FBS, Glu and P/S, Kitra-SRS (CIC-DUX4 sarcoma cell line, a generous gift from Hidetatsu Otani), 3T3, 293T and C2C12 cell lines were cultured in DMEM/10% FBS/Glu/P/S. The immortalized human myoblast LHCN-M2 cell line was cultured in proliferation medium: F10 supplemented with 20% FBS, 2-mercaptoethanol 1× (GIBCO), 10^−9 M dexamethasone (Sigma), 10 ng/mL bFGF (Peprotech), and Glu/P/S. All cells were cultured at 37° C. in a 5% CO2 atmosphere.\nas §1\nThe activity of the various iP300w stereoisomers against NCC-CDS-X1 cells was evaluated. Cultures were treated with serial dilutions, ranging from 0.003 μM to 3.0 μM, for up to 96 hours. In cells treated with iP300w, a significant decrease in cell viability was evident at the lowest concentration (0.003 μM) at 48 and 96 hours (FIG. 3A). The effect was dose- and time-dependent. […] (FIG. 2B and FIG. 9)."}, "DUX4": {"test_system": "DUX4", "details": "cited from earlier work"}, "NCC-CDS-X1 spheres": {"test_system": "NCC-CDS-X1 spheres", "assay": "Spheroid assay", "type": "cell-based, human", "details": "day 4 and 8", "experimental": "For spheroid formation assays, 2.5×10^4 NCC-CDS-X1 cells were seeded into 96-well plates (96-well Clear Flat Bottom Ultra-Low Attachment Microplate; Corning, Inc., Corning, NY, USA) in MEM/10% FBS media. Treatment with iP300w was started two days after the plating when the cells formed compact spheres."}}}
{"compound": "CNC(=O)Cn1cc(-c2ccc3c(c2)[C@H](F)C[C@]32NC(=O)N(CC(=O)N(Cc3ccc(F)cc3)[C@@H](C)C(F)(F)F)C2=O)cn1", "note": "(single isomer, unassigned) [iP300w]", "values": [{"measurement": "effect on cell viability", "setting": "[1]", "value": "no significant effect on cell viability"}, {"measurement": "effect on global H3K18 and H3K27 acetylation", "setting": "[2]", "value": "reduces global H3K18 and H3K27 acetylation"}, {"measurement": "Ki-67 positive staining", "setting": "Kitra-SRS cells", "value": "almost complete absence of Ki-67 positive staining"}, {"measurement": "effective concentration on CDS cells", "setting": "[3]; CDS cells, studies herein", "value": 0.003, "unit": "µM"}, {"measurement": "lowest concentration with significant decrease in cell viability", "setting": "[3]; NCC-CDS-X1, 48 and 96 hours, serial dilutions 0.003 to 3.0 μM", "value": 0.003, "unit": "µM"}, {"measurement": "lowest effective concentration in cell viability assay", "setting": "[3]; NCC-CDS-X1, day 2", "value": 0.003, "unit": "µM"}, {"measurement": "activity relative to A-485 in the cell-based assays", "setting": "[3]; cell-based assays", "value": "about two orders of magnitude more active than A-485"}, {"measurement": "effect on cell death caused by full length DUX4", "setting": "DUX4", "value": "cell death was prevented"}, {"measurement": "effect on gene expression changes caused by DUX4", "setting": "DUX4", "value": "ability to reverse gene expression changes caused by DUX4"}, {"measurement": "effect on CDS cell sphere formation and growth", "setting": "NCC-CDS-X1 spheres", "value": "dose and time inhibitory effect"}]}
